These results are taken from the supplement of paper PMC11208160.
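Note: IS621 recombinase and bridge RNA in Escherichia coli cells.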

The nature of this data set: recombinant barcode read abundance after kanamycin selection (control-corrected) (log10(CPM+1)); higher = more efficient recombination; sequences stand for … in AGTGCAGAGAAAATCGGCCAGTTTTCTCTGCCTGCAGTCCGCATGCCGT…AGATTTATGCAGCGGACTGCCTTTCTCCCAAAGTGATAAACCGGACAGTATCATGGACCGGTTTTCCCGGTAATCCGTATTTGCAAGGTTGGTTTCACT; site = the 11-nt target. The essentials: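 Recombination efficiency in this pooled E. coli screen uses counts per million of barcodes at recombinant junctions, averaged and corrected against the control. The reported form is log10(CPM+1). Two replicates were plated on chloramphenicol/ampicillin LB agar as control and two on chloramphenicol/ampicillin/kanamycin with 0.1 mM IPTG.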
“CGAGCTCCTTGGGTTCTAACCTGTTGCAT (site CGAGCTCCTAC)”: the “recombinant barcode read abundance (log10)” value amounted to 0.154.

“CGAGCTCCTTGGGTTCTAACCTGTTGCAT (site CGAGCTCCTAG)”: the “recombinant barcode read abundance (log10)” value was 0.425.

“CGAGCTCCTTGGGTTCTAACCTGTTGCAT (site CGAGCTCCTAT)”: the “recombinant barcode read abundance (log10)” value is 1.86.

Take “CGAGCTCCTTGGGTTCTAACCTGTTGCCC (site CGAGCTCCTGG)”: the “recombinant barcode read abundance (log10)” value was 0.591.

As for “CGAGCTCCTTGGGTTCTAACCTGTTGCCC (site GGAGCTCCTTG)”, the “recombinant barcode read abundance (log10)” value came to 0.512.

Take “CGAGCTCCTTGGGTTCTAACCTGTTGCTT (site CGAGCTCCTAA)”: the “recombinant barcode read abundance (log10)” value amounted to 0.324.

In the case of “CGAGCTCCTTGGGTTCTAACCTGTTGCTT (site CGAGCTCCTAC)”, the “recombinant barcode read abundance (log10)” value turned out to be 0.0191.

Regarding “CGAGCTCCTTGGGTTCTAACCTGTTGCTT (site CGAGCTCCTAG)”, the “recombinant barcode read abundance (log10)” value stood at 1.1.

With “CGAGCTCCTTGGGTTCTAACCTGTTGCTT (site CGAGCTCCTAT)”, the “recombinant barcode read abundance (log10)” value turned out to be 0.337.

As to “CGAGGGGCTTGGGTTCTAACCTGTTGCCT (site CGAGGGACTAG)”, the “recombinant barcode read abundance (log10)” value was 0.127.

As for “CGAGGGGCTTGGGTTCTAACCTGTTGCCT (site CGAGGGCCTAG)”, the “recombinant barcode read abundance (log10)” value was found to be 0.0526.

Consider “CGAGGGGCTTGGGTTCTAACCTGTTGCCT (site CGAGGGGCTAG)”, for which the “recombinant barcode read abundance (log10)” value came to 0.369.

For the sequence “CGAGGGGCTTGGGTTCTAACCTGTTGCCT (site CGAGGGTCTAG)”, the “recombinant barcode read abundance (log10)” value is 0.35.

Turning to “CGATAGCCTTGGGTTCTAACCTGTTGCCT (site AGATAGCCTAG)”, the “recombinant barcode read abundance (log10)” value came out at 0.024.

For the sequence “CGATAGCCTTGGGTTCTAACCTGTTGCCT (site CGATAGCCTAG)”, the “recombinant barcode read abundance (log10)” value came to 0.643.

As for “CGATAGCCTTGGGTTCTAACCTGTTGCCT (site GGATAGCCTAG)”, the “recombinant barcode read abundance (log10)” value worked out at 0.132.

In the case of “CGATAGCCTTGGGTTCTAACCTGTTGCCT (site TGATAGCCTAG)”, the “recombinant barcode read abundance (log10)” value was found to be 0.

In the case of “CGATCTACTTGGGTTCTAACCTGTTGCAG (site AAGGGGCCTAG)”, the “recombinant barcode read abundance (log10)” value is 0.23.

As for “CGATCTACTTGGGTTCTAACCTGTTGCAG (site CGATCTACTCT)”, the “recombinant barcode read abundance (log10)” value was found to be 0.0308.

In the case of “CGATTAACTTGGGTTCTAACCTGTTGCCT (site CGATTAACTAG)”, the “recombinant barcode read abundance (log10)” value was 0.139.

On to “CGATTAACTTGGGTTCTAACCTGTTGCCT (site CGATTACCTAG)”, for which the “recombinant barcode read abundance (log10)” value worked out at 0.361.

Take “CGATTAACTTGGGTTCTAACCTGTTGCCT (site CGATTAGCTAG)”: the “recombinant barcode read abundance (log10)” value worked out at 0.107.

For “CGATTAACTTGGGTTCTAACCTGTTGCCT (site CGATTATCTAG)”, the “recombinant barcode read abundance (log10)” value turned out to be 0.0439.

As to “CGCAAATCTTGGGTTCTAACCTGTTGCCT (site CGAAAATCTAG)”, the “recombinant barcode read abundance (log10)” value was 0.0245.

Turning to “CGCAAATCTTGGGTTCTAACCTGTTGCCT (site CGCAAATCTAG)”, the “recombinant barcode read abundance (log10)” value was 0.0815.

Consider “CGCAAATCTTGGGTTCTAACCTGTTGCCT (site CGGAAATCTAG)”, for which the “recombinant barcode read abundance (log10)” value was 0.0907.

Take “CGCAAATCTTGGGTTCTAACCTGTTGCCT (site CGTAAATCTAG)”: the “recombinant barcode read abundance (log10)” value is 0.166.

Take “CGCCACCCTTGGGTTCTAACCTGTTGCCT (site CGCCACCCTAG)”: the “recombinant barcode read abundance (log10)” value came out at 0.165.

Regarding “CGCCACCCTTGGGTTCTAACCTGTTGCCT (site CTGCACCCTAG)”, the “recombinant barcode read abundance (log10)” value worked out at 0.0944.

Regarding “CGCCCGCCTTGGGTTCTAACCTGTTGCCT (site AGCCCGCCTAG)”, the “recombinant barcode read abundance (log10)” value was determined as 0.165.

Consider “CGCCCGCCTTGGGTTCTAACCTGTTGCCT (site CGCCCGCCTAG)”, for which the “recombinant barcode read abundance (log10)” value was 0.0631.

Consider “CGCCCGCCTTGGGTTCTAACCTGTTGCCT (site GGCCCGCCTAG)”, for which the “recombinant barcode read abundance (log10)” value is 0.109.

“CGCCCGCCTTGGGTTCTAACCTGTTGCCT (site TGCCCGCCTAG)”: the “recombinant barcode read abundance (log10)” value was 0.0262.

Consider “CGCCCTACTTGGGTTCTAACCTGTTGCTT (site CGCCCTACTAA)”, for which the “recombinant barcode read abundance (log10)” value was determined as 0.311.

In the case of “CGCCCTACTTGGGTTCTAACCTGTTGCTT (site CGCCTAACTAA)”, the “recombinant barcode read abundance (log10)” value is 0.491.

On to “CGCCTAACTTGGGTTCTAACCTGTTGCTT (site CGCCCTACTAA)”, for which the “recombinant barcode read abundance (log10)” value came to 0.0705.

As to “CGCCTAACTTGGGTTCTAACCTGTTGCTT (site CGCCTAACTAA)”, the “recombinant barcode read abundance (log10)” value is 0.126.

With “CGCCTCCCTTGGGTTCTAACCTGTTGCAT (site CGCCTCCCTAT)”, the “recombinant barcode read abundance (log10)” value came out at 0.159.

As for “CGCCTCCCTTGGGTTCTAACCTGTTGCAT (site GGCCTCCCTAT)”, the “recombinant barcode read abundance (log10)” value turned out to be 0.

For “CGCGATCCTTGGGTTCTAACCTGTTGCGT (site AGCGACCCTAC)”, the “recombinant barcode read abundance (log10)” value was determined as 0.0431.

With “CGCGATCCTTGGGTTCTAACCTGTTGCGT (site CGCGATCCTAC)”, the “recombinant barcode read abundance (log10)” value is 0.834.

As to “CGCGCTCCTTGGGTTCTAACCTGTTGCCT (site CGCGATCCTAG)”, the “recombinant barcode read abundance (log10)” value stood at 0.0445.

Consider “CGCGCTCCTTGGGTTCTAACCTGTTGCCT (site CGCGCTCCTAG)”, for which the “recombinant barcode read abundance (log10)” value is 0.245.

As for “CGCGCTCCTTGGGTTCTAACCTGTTGCCT (site CGCGGTCCTAG)”, the “recombinant barcode read abundance (log10)” value came out at 0.0941.

As for “CGCGCTCCTTGGGTTCTAACCTGTTGCCT (site CGCGTTCCTAG)”, the “recombinant barcode read abundance (log10)” value worked out at 0.0658.

“CGCTTACCTTGGGTTCTAACCTGTTGCCT (site AGCTTACCTAG)”: the “recombinant barcode read abundance (log10)” value stood at 0.143.

On to “CGCTTACCTTGGGTTCTAACCTGTTGCCT (site CGCTTACCTAG)”, for which the “recombinant barcode read abundance (log10)” value worked out at 0.0899.

With “CGCTTACCTTGGGTTCTAACCTGTTGCCT (site GGCTTACCTAG)”, the “recombinant barcode read abundance (log10)” value was found to be 0.0208.

As to “CGCTTACCTTGGGTTCTAACCTGTTGCCT (site TGCTTACCTAG)”, the “recombinant barcode read abundance (log10)” value was found to be 0.192.

Turning to “CGCTTGTCTTGGGTTCTAACCTGTTGCCG (site CGCTTGTCTCG)”, the “recombinant barcode read abundance (log10)” value amounted to 0.134.

In the case of “CGCTTGTCTTGGGTTCTAACCTGTTGCCG (site CTCTTGTCTTG)”, the “recombinant barcode read abundance (log10)” value amounted to 0.0615.

For the sequence “CGGACGCCTTGGGTTCTAACCTGTTGCCT (site CGGACGACTAG)”, the “recombinant barcode read abundance (log10)” value is 0.352.

For the sequence “CGGACGCCTTGGGTTCTAACCTGTTGCCT (site CGGACGCCTAG)”, the “recombinant barcode read abundance (log10)” value was determined as 0.892.

Turning to “CGGACGCCTTGGGTTCTAACCTGTTGCCT (site CGGACGGCTAG)”, the “recombinant barcode read abundance (log10)” value is 1.51.

For the sequence “CGGACGCCTTGGGTTCTAACCTGTTGCCT (site CGGACGTCTAG)”, the “recombinant barcode read abundance (log10)” value turned out to be 0.25.

For “CGGACTTCTTGGGTTCTAACCTGTTGCCT (site CAGACTTCTAG)”, the “recombinant barcode read abundance (log10)” value is 0.182.

As to “CGGACTTCTTGGGTTCTAACCTGTTGCCT (site CCGACTTCTAG)”, the “recombinant barcode read abundance (log10)” value came out at 0.049.

As to “CGGACTTCTTGGGTTCTAACCTGTTGCCT (site CGGACTTCTAG)”, the “recombinant barcode read abundance (log10)” value turned out to be 0.0521.

For “CGGACTTCTTGGGTTCTAACCTGTTGCCT (site CTGACTTCTAG)”, the “recombinant barcode read abundance (log10)” value was 0.0412.
